According to patent US20220362276A1, “Small Molecule Inhibitors of Viral Replication” (The Trustees of Princeton University, priority 2019, published 2022):
“Also recorded” adds a separate entry of the source.

Assays:
[1] = test system: translation of T7-tagBFP-Gluc; test: Translation inhibition assay (T7-tagBFP-Gluc RNA in Huh7 cells); assay type: cell-based; details: 4 days
From the text: Generation of T7-tagBFP-Gluc. To make the T7-TagBFP-GLuc construct, SP6-TagBFP-2A-FLuc was used as a template and the primers PU-O-6099 and PU-O-6100 were designed to partially anneal immediately upstream and downstream of the SP6 promoter. The unbound portions of PU-O-6099 and PU-O-6100 contained the T7 promoter sequence. […] Next, PCR amplification of the T7-TagBFP-2A backbone was completed using the Q5® High-Fidelity DNA Polymerase and PU-O-6101 and PU-O-6102 as the primers. […] The Gluc insert was then ligated to the T7-TagBFP-2A backbone using the In-Fusion® HD Cloning Kit.
Translation Inhibition Assay. Huh7 cells were seeded at 6,250 cells per well in 96-well format. The cells were then transfected with 50 ng T7-TagBFP-Gluc in vitro transcribed RNA per well. Five hours post-transfection, transfection medium was changed to medium containing isocotoin, ribavirin, cycloheximide, or roclagamide at 6 or 7 different concentrations. DMSO concentration was kept constant in all the wells at 0.125%. For each drug dose, triplicate wells were tested. On day four post-transfection, a luciferase assay was performed on supernatant media to measure Gluc expression.

Huh7 cells = test: ATP-based cell viability assay (CellTiterGlo); details: ATP live-cell viability assay
Protocol: Measurement of Cytotoxicity by CellTiterGlo Assay. […] Readout was performed using a Berthold luminometer.

[2] = test system: p6/Gluc (HEVΔORF2/3[Gluc]) replicon, KernowC1p6 genotype 3; test: Dose titration against p6/Gluc replicon in Huh7 cells, Gaussia luciferase readout; assay type: cell-based, hepatitis E virus; details: for inhibition of p6/Gluc (HEV) replication, in words: Huh7 cells, supernatant Gluc
Protocol: Gaussia luciferase assays.
Statistics—calculation of IC50. Half maximal inhibitory concentrations were calculated by graphing dose-titration data as nonlinear curve fits with three parameters using GraphPad Prism (v8.1.2).

SMILES	cytotoxicity / inhibition of cell growth, in words (Huh7 cells)	inhibition of p6/Gluc (HEV) replication, in words [2]	further results
COc1ccc([C@@]23Oc4cc(OC)cc(OC)c4C2(O)[C@H](O)[C@H](C(=O)N(C)C)[C@H]3c2ccccc2)cc1 (stereo in doubt) [roclagamide, (1R,2R,3S,3aR,8bS)-1,8b-dihydroxy-6,8-dimethoxy-3a-(4-methoxyphenyl)-N,N-dimethyl-3-phenyl-2,3-dihydro-1H-cyclopenta[b][1]benzofuran-2-carboxamide, reference compound]	–	–	suppression of Gluc levels [1]: ~10 fold
C=CCNC1=C2C[C@@H](C)C[C@H](OC)[C@H](O)[C@@H](C)/C=C(\C)[C@H](OC(N)=O)[C@@H](OC)/C=C\C=C(/C)C(=O)NC(=CC1=O)C2=O [17-AAG, [(4E,6Z,8S,9S,10E,12S,13R,14S,16R)-13-hydroxy-8,14-dimethoxy-4,10,12,16-tetramethyl-3,20,22-trioxo-19-(prop-2-enylamino)-2-azabicyclo[16.3.1]docosa-1(21),4,6,10,18-pentaen-9-yl] carbamate, reference compound]	cytostatic properties; also recorded: inhibitors of cell growth	inhibited HEV replication; also recorded: potent inhibitors	–
CCNC(=O)c1noc(-c2cc(C(C)C)c(O)cc2O)c1-c1ccc(CN2CCOCC2)cc1 [AUY-922, 5-(2,4-dihydroxy-5-propan-2-ylphenyl)-N-ethyl-4-[4-(morpholin-4-ylmethyl)phenyl]-1,2-oxazole-3-carboxamide, reference compound]	–	inhibited HEV replication; also recorded: potent inhibitors; also recorded: most potent analogs	–
O=C(c1ccc(Cl)cc1)c1ccc(O)cc1O [IBS102, (4-chlorophenyl)-(2,4-dihydroxyphenyl)methanone]	–	–	fold greater decrease in RLU than isocotoin ([2]; 25 μM dose, first round of SAR): approximately 10 fold
COc1ccc(-c2c(C)noc2-c2ccc(O)cc2O)cc1 [IBS672, 4-[4-(4-methoxyphenyl)-3-methyl-1,2-oxazol-5-yl]benzene-1,3-diol]	–	–	fold greater decrease in RLU than isocotoin ([2]; 1.5625 μM, second round of SAR): approximately 40 fold
CC(C)c1cc(-c2n[nH]c(=O)n2-c2ccc3c(ccn3C)c2)c(O)cc1O [STA-9090, 3-(2,4-dihydroxy-5-propan-2-ylphenyl)-4-(1-methylindol-5-yl)-1H-1,2,4-triazol-5-one, reference compound]	cytostatic properties; also recorded: inhibitors of cell growth	inhibited HEV replication; also recorded: potent inhibitors	–
CCNC(=O)c1noc(-c2cc(Cl)c(O)cc2O)c1-c1ccc(OC)cc1 [VER-50589, 5-(5-chloro-2,4-dihydroxyphenyl)-N-ethyl-4-(4-methoxyphenyl)-1,2-oxazole-3-carboxamide, reference compound]	cytostatic properties; also recorded: inhibitors of cell growth	inhibited HEV replication; also recorded: potent inhibitors; also recorded: most potent analogs	–
C[C@@H]1C[C@@H]([C@H](O)CC2CC(=O)NC(=O)C2)C(=O)[C@@H](C)C1 [cycloheximide, reference compound]	–	–	suppression of Gluc levels [1]: ~10 fold
C[C@H]1O[C@@H](O[C@H]2[C@@H](O)C[C@H](O[C@H]3[C@@H](O)C[C@H](O[C@H]4CC[C@@]5(C)[C@H](CC[C@@H]6[C@@H]5CC[C@]5(C)[C@@H](C7=CC(=O)OC7)[C@@H](O)C[C@]65O)C4)O[C@@H]3C)O[C@@H]2C)C[C@H](O)[C@@H]1O [gitoxin]	high cytotoxicity	dose-dependent inhibition	–
